Results published in ChEMBL document CHEMBL1201862, “PubChem BioAssay data set” (2004).
Several values for one entry are separate records, joined by “and”; a condition that tells them apart may be missing. Equal values may be shown once. Activity calls are given as the source filed them.

Key:
Vero = test: viability of Vero cells under compound – cytotoxicity control for flavivirus capping enzyme inhibitors (AID 588742); type: functional; conditions: Chlorocebus sabaeus
[1] = molecular target: Protein disulfide-isomerase (Homo sapiens, UniProt P07237); test: inhibition of PDI-driven insulin aggregation – biochemical, turbidity, absorbance, cherry-picked samples, dose response (AID 602350); type: functional
Genome polyprotein = Genome polyprotein (dengue virus type 2, UniProt P29990); test: flavivirus cap methylation enzyme inhibition – biochemical, confirmation dose response, primary screen (AID 588689); type: functional
Caspase-6 = molecular target: T1, Caspase-6 (Homo sapiens, UniProt P55212); test: inhibition of CASP6 peptide cleavage – biochemical, VEID-R110 fluorescence, cherry-pick, dose response (AID 720632)
T1 sequence (P55212 whole entry): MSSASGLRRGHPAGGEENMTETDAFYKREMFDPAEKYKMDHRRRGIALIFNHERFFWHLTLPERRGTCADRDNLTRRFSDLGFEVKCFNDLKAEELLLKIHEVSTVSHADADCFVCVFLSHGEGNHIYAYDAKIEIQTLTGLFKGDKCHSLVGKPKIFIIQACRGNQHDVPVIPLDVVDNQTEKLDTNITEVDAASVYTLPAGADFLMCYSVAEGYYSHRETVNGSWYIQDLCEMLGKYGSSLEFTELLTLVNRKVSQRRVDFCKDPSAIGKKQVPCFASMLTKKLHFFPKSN

[2] = molecular target: Beta-2 adrenergic receptor (Homo sapiens, UniProt P07550); test: ADRB2 activation measured by internalization – cell-based, FAP fluorogen, flow cytometry, cherry pick 1, dose response (AID 588763); type: functional
[3] = Trypanosoma cruzi growth suppression in host cells – NIH3T3 host cells, beta-gal luminescence, confirmation (AID 2044); type: functional, cell-based;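 note: intracellular parasites grown in NIH/3T3 mouse fibroblasts as host cells; luminescent beta-galactosidase reporter signal from transgenic T. cruzi replicating inside host cells; inhibitors lower the luminescence signal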
[4] = NIH3T3 cell viability loss – ATP luminescence, mouse fibroblasts, counter-screen, dose response (AID 2010); type: functional, cell-based;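 note: cells exposed to compound for about 90 hours before reading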
Aurora kinase A = molecular target: T2, Aurora kinase A (Homo sapiens, UniProt O14965); type: functional;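 note: value from the Navigating the Kinome kinase panel profiling, panel entry STK6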
T2 sequence (O14965 whole entry): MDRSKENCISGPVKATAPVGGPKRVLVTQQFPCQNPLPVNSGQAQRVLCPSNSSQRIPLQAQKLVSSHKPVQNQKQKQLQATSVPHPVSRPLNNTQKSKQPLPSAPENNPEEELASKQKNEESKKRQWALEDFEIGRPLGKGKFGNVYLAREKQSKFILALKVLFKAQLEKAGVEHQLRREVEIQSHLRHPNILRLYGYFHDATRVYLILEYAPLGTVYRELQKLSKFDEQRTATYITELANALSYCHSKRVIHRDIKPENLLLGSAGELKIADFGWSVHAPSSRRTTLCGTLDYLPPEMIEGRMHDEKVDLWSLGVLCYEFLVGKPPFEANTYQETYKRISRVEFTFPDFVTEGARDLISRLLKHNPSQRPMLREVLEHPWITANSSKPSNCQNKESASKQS

[5] = molecular target: Cyclin-dependent kinase 19 (Homo sapiens, UniProt Q9BWU1); test: Navigating the Kinome. Panel member name: CDC2L6; type: functional
Insulin-degrading enzyme [6] = molecular target: T3, Insulin-degrading enzyme (Homo sapiens, UniProt P14735); test: recombinant IDE activation, cell-free – biochemical, fluorescence polarization, counter-screen for IDE activator project, dose response (AID 588681)
T3 sequence (P14735 whole entry): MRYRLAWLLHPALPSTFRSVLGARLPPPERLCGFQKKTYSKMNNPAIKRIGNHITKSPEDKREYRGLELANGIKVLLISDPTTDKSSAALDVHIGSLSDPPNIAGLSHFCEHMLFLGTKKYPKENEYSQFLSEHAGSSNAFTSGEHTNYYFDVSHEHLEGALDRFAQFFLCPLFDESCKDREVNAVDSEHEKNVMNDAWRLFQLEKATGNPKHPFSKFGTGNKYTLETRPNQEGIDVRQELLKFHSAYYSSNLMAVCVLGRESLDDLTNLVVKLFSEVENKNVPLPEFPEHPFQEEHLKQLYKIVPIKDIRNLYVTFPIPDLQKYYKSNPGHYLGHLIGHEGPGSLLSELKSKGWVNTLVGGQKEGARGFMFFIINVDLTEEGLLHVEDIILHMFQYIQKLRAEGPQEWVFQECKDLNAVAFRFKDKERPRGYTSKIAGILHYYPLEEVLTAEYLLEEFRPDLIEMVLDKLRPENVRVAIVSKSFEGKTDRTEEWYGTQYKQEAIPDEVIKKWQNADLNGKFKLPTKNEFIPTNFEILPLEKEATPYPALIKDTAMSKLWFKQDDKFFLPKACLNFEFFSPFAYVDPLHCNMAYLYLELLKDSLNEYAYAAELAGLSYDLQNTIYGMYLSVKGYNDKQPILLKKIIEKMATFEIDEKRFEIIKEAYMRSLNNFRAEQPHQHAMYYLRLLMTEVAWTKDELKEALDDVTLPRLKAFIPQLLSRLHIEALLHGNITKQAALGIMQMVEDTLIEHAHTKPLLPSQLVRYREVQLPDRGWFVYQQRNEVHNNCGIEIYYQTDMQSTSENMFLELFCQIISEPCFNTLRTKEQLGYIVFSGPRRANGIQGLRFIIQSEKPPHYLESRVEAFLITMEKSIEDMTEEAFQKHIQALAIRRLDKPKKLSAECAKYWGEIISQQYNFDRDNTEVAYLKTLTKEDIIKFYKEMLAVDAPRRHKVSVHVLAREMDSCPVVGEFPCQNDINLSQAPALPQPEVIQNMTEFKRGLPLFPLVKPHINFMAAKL

Insulin-degrading enzyme [7] = molecular target: T3, Insulin-degrading enzyme; test: cellular IDE activation of Abeta substrate cleavage – fluorescence polarization, HEK cells, dose response (AID 588439); type: functional, cell-based
HEK293 [8] = test: membrane integrity loss in HEK cells – cell-based, fluorescence, cytotoxicity control for IDE activator project, dose response (AID 588440); type: functional; conditions: Homo sapiens;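 note: cytotoxicity by LDH release measuring loss of membrane integrity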
HEK293 [9] = test: optical interference in Abeta FP readout, dose response, artefact control for IDE activator project, biochemical, fluorescence polarization (AID 588442); type: functional, cell-based; conditions: Homo sapiens
[10] = molecular target: Melanin-concentrating hormone receptor 1 (Homo sapiens, UniProt Q99705); test: Late-stage fluorescence-based counterscreen for antagonists of the G-protein coupled receptor 7 (GPR7): cell-based dose response assay to identify antagonists of the melanin-concentrating hormone receptor 1 (MCHR1) Set 5.; type: functional
[11] = Luminescence Cell-Based Dose Confirmation HTS to Identify Activators of 5'UTR Stem-Loop Driven Alpha-Synuclein mRNA Translation in H4 Neuroglioblastoma Cells. [Related pubchem assays: 1829 (Project Summary), 1814 (Primary HTS)]; type: functional
[12] = Luminescence Cell-Based Dose Response HTS to Identify Activators of Luciferase Translation or Activity in H4 […] Cells. [Related pubchem assays: 1829 (Project Summary), 1814 (Primary HTS)]; type: functional
H4 = test: Luminescence Cell-Based Dose Response HTS to Identify Activators of 5'UTR Stem-Loop Driven Prion Protein mRNA Translation in H4 Neuroglioblastoma Cells. [Related pubchem assays: 1829 (Project Summary), 1814 (Primary HTS)]; type: functional; conditions: Homo sapiens
CAAX prenyl protease 2 [13] = molecular target: T4, CAAX prenyl protease 2 (Saccharomyces cerevisiae S288c, UniProt Q03530); type: biochemical
T4 sequence (Q03530 whole entry): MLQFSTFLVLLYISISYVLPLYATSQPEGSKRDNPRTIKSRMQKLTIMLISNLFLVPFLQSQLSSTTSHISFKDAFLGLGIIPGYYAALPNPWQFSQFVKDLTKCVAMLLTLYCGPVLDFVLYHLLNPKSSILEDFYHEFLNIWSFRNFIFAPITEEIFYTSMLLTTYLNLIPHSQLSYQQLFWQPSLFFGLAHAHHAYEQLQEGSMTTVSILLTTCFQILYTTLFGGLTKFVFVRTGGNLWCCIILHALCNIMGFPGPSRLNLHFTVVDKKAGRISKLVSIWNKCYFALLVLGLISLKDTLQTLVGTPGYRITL

Protein RecA = molecular target: T5, Protein RecA (Mycobacterium tuberculosis, UniProt P9WHJ3); test: Fluorescence Cell-Free Homogeneous Dose Retest to Identify Inhibitors of RecA-Intein Splicing Activity. [Related pubchem assays (depositor defined):AID2097, AID2223, AID489010, AID492950]; type: functional
T5 sequence (P9WHJ3 whole entry): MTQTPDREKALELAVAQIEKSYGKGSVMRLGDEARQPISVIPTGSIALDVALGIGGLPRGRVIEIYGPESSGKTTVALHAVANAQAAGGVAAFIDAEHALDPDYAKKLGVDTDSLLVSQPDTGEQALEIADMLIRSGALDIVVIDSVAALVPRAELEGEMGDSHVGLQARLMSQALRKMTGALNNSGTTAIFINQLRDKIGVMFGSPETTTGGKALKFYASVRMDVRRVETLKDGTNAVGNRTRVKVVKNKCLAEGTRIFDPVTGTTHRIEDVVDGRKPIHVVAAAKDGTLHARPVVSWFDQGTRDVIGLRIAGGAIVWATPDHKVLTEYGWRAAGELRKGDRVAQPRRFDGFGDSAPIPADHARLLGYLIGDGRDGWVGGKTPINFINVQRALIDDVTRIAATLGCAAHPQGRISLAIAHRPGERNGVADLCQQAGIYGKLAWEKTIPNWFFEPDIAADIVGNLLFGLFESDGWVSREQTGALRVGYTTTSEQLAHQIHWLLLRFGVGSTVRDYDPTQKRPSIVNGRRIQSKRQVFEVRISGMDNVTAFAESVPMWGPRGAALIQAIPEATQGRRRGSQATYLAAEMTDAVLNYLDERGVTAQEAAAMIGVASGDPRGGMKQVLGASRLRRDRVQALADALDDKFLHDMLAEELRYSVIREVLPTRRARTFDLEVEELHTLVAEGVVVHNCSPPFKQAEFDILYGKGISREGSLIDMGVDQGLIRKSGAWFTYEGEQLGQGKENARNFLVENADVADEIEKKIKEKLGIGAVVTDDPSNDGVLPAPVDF

CAAX prenyl protease 2 [14] = molecular target: T6, CAAX prenyl protease 2 (Homo sapiens, UniProt Q9Y256); test: inhibition of Ras-converting CAAX protease Rce1 – biochemical, yeast membranes, quenched-peptide fluorescence, cherry-pick, dose response (AID 588849)
T6 sequence (Q9Y256 whole entry): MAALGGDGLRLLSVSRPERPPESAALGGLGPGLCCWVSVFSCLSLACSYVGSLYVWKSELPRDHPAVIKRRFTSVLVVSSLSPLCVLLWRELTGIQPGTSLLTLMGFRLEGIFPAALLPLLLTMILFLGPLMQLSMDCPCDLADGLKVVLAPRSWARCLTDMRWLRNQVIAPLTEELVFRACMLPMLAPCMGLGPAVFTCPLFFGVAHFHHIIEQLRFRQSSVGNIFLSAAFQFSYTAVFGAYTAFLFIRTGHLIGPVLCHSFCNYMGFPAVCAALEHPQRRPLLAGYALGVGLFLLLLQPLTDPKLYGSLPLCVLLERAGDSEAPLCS

Protein disulfide-isomerase, sequence (P07237 whole entry): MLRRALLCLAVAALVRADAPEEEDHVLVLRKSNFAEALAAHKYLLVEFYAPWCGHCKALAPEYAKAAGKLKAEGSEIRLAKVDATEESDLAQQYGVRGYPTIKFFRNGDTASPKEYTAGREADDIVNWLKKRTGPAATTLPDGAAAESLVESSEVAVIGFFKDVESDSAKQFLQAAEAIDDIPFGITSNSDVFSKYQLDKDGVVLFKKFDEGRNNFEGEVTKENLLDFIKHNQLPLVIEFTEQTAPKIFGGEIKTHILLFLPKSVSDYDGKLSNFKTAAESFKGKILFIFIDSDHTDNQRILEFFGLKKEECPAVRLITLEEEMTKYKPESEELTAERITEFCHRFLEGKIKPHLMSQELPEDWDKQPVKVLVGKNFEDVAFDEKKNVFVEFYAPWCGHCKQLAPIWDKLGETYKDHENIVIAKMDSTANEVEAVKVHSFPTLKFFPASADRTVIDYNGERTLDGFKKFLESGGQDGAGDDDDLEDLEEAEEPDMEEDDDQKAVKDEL
Beta-2 adrenergic receptor, sequence (P07550 whole entry): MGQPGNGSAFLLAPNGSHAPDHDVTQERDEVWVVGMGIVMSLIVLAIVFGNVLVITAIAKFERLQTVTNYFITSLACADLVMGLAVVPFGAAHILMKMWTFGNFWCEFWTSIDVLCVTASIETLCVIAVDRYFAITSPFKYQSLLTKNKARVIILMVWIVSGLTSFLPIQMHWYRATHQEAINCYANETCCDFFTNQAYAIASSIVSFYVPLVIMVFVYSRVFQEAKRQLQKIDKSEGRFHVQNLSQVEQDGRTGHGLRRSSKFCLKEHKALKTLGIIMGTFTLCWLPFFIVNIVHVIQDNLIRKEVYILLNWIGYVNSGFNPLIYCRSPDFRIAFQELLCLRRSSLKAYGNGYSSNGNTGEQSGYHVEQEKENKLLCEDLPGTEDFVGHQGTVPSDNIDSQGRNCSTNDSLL
Cyclin-dependent kinase 19, sequence (Q9BWU1 whole entry): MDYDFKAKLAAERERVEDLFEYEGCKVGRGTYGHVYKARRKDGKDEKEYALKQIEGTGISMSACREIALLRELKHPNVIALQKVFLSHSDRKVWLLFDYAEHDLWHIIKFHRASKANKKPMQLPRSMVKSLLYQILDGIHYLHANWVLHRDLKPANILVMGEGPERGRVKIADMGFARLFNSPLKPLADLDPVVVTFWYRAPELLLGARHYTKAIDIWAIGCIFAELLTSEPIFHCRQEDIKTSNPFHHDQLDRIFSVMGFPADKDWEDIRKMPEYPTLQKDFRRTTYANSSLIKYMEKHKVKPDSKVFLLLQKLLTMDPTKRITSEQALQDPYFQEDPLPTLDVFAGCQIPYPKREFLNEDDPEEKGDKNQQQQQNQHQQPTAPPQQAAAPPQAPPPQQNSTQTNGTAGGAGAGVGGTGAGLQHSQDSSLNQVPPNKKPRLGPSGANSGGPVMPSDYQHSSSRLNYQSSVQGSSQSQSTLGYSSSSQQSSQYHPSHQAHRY
Genome polyprotein, sequence (P29990 2492-3391 limits assumed): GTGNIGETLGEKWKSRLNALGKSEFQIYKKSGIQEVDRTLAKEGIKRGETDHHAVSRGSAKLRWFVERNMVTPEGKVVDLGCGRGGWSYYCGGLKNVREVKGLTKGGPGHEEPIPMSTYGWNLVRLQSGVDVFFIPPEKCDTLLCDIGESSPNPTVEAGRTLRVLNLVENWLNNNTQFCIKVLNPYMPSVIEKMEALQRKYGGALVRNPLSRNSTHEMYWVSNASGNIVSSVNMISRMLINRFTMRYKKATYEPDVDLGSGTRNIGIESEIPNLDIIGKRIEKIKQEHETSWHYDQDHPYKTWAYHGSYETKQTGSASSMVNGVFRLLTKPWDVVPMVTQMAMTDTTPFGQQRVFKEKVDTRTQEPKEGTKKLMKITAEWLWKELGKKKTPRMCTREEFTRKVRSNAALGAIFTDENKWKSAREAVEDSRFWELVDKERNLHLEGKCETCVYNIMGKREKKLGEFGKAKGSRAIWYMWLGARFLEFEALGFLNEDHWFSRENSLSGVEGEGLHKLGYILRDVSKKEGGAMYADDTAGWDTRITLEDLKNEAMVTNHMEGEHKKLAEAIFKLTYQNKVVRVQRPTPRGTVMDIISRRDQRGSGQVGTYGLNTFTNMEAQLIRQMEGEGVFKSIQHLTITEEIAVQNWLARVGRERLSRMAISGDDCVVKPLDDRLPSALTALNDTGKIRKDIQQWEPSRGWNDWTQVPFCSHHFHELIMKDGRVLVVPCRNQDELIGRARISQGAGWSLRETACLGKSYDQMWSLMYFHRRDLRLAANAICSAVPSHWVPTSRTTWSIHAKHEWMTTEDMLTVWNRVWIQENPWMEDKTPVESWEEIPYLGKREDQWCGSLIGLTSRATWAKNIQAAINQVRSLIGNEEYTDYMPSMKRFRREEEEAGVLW
Melanin-concentrating hormone receptor 1, sequence (Q99705 whole entry): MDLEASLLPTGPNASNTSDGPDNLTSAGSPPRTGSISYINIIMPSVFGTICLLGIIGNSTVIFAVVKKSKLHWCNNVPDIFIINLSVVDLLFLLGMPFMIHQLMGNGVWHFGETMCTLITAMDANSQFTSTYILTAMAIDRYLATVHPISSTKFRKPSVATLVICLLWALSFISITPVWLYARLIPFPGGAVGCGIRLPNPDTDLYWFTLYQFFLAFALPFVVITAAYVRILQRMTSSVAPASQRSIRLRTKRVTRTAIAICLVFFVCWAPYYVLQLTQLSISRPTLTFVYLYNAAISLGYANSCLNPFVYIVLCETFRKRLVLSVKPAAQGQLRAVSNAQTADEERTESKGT

With `O=C(c1ccc2c(c1)OCO2)N(Cc1cccs1)C1(C(=O)NC2CCCCC2)CCCCC1` the CC50 (Vero) was > 40 µM (active).

For `Cc1nnc(O)c2c(NC(=O)CSc3nnnn3-c3ccc(O)cc3)oc(C)c12`, the AC50 [1] was 19.5 µM (active).

For `CC(=O)C1=C(O)C(=O)N(c2cc(C(C)(C)C)on2)C1c1ccc(C(C)C)cc1` (centres undefined), the CC50 (Vero) was > 40 µM (active) and the IC50 (Genome polyprotein) was 95.3 µM (active).

In the case of `C/C(CC(=O)N1CCCC1)=N\NC(=O)c1cc2ccccc2cc1O`, the CC50 (Vero) is reported as 17.5 µM (active) and the AC50 (Caspase-6) is reported as 1.88 µM (active).

In the case of `COc1cc2c(cc1Cl)C(=O)C(F)(c1ccccc1)C(=O)N2` (centres undefined), the EC50 [2] is reported as 7.03 µM (inactive).

For `C=CCn1c(SCc2ccc(F)cc2)nnc1-c1sc2nc(C)cc(C)c2c1N`, the EC50 [3] was 0.423 µM (active), the EC50 [4] was > 60 µM (not active) and the EC50 [2] was 0.029 µM (active).

With `Cc1ccc(NC(=O)Nc2ccc(-c3c(Cc4cccnc4)sc4ncnc(N)c34)cc2)cc1` the Ki (Aurora kinase A) was 0.0631 µM (active) and the Ki [5] was > 100 µM (inactive).

With `O=C1C=C(c2ccc(-c3ccccc3)cc2)C[C@@H](c2ccc3c(c2)OCO3)C1` the EC50 (Insulin-degrading enzyme [6]) was > 54.7 µM (inactive), the EC50 (Insulin-degrading enzyme [7]) was > 54.7 µM (inactive) and the IC50 (HEK293 [8]) was > 89.2 µM (inactive). For the same molecule, the EC50 (HEK293 [9]) was > 54.7 µM (inactive).

In the case of `Cc1noc(C)c1S(=O)(=O)Nc1ccc2c(c1)CC(=O)N([C@H](C)CO)C[C@H](C)[C@H](CN(C)S(=O)(=O)c1ccc(F)cc1)O2`, the AC50 [1] is reported as 16.9 µM (active) and 19.5 µM (active).

With `CNC(=S)N(Cc1cccs1)Cc1cc2cc(OC)ccc2nc1O` the EC50 (Insulin-degrading enzyme [6]) was > 54.7 µM (inactive), the EC50 (Insulin-degrading enzyme [7]) was > 54.7 µM (inactive) and the IC50 (HEK293 [8]) was > 89.3 µM (inactive). The EC50 (HEK293 [9]) was > 54.7 µM (inactive).

In the case of `COc1ccc(Oc2c(Cl)cnn(CC(=O)N(c3ccccc3)c3ccccc3)c2=O)cc1`, the IC50 [10] is reported as 10.7 µM (inactive).

With `Oc1nc(Nc2ccccn2)cc2ccccc12` the EC50 [11] was 4 µM (active), the EC50 [12] was 6.15 µM (active) and the EC50 (H4) was 36.8 µM (active). For the same molecule, the AC50 (CAAX prenyl protease 2 [13]) was > 100 µM (inactive), the EC50 (Protein RecA) was > 380 µM (inactive) and the AC50 (CAAX prenyl protease 2 [14]) was 14 µM (active). For the same molecule, the AC50 (Caspase-6) was 5.89 µM (active).
